Consider 1 compound from BindingDB's records for patent USRE49080 (Novartis AG, 2022).

The target of this assay is T1, Sodium/glucose cotransporter 2 (Homo sapiens, UniProt P31639).
T1 sequence (P31639 whole entry): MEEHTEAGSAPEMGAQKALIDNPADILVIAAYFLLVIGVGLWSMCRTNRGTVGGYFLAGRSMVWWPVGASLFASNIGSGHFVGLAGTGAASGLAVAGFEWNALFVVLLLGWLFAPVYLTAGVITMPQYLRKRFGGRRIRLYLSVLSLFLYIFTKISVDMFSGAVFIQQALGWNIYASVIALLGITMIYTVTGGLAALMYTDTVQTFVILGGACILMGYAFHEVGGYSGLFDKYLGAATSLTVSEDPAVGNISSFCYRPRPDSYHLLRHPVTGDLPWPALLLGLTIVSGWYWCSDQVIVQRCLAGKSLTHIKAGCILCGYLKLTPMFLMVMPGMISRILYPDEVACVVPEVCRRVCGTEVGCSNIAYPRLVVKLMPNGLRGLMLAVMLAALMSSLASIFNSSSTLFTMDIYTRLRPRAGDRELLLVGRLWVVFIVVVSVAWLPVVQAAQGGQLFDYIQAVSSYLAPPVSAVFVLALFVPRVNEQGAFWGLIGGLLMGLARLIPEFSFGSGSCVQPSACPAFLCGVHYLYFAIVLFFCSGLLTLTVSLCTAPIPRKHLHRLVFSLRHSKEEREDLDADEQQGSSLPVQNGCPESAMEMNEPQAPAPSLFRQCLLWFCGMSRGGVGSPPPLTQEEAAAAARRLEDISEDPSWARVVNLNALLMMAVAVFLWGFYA
Description: Inhibitory Effect on the Sodium-dependent Glucose Co-Transporter SGLT, SGLT1 and SGLT2. On the procedure: The SGLT-2 assay is carried out as follows: CHO-hSGLT2 cells are cultivated in Ham's F12 Medium (BioWhittaker) with 10% foetal calf serum and 250 μg/mL zeocin (Invitrogen), and HEK293-hSGLT2 cells are cultivated in DMEM medium with 10% foetal calf serum and 250 μg/mL zeocin (Invitrogen). The cells are detached from the culture flasks by washing twice with PBS and subsequently treating with trypsin/EDTA. After the addition of cell culture medium the cells are centrifuged, resuspended in culture medium and counted in a Casy cell counter. Then 40,000 cells per well are seeded into a white, 96-well plate coated with poly-D-lysine and incubated overnight at 37° C., 5% CO2. […] 250 μl of assay buffer and 5 μl of test compound are then added to each well and the plate is incubated for a further 15 minutes in the incubator. 5 μl of 10% DMSO are used as the negative control. The reaction is started by adding 5 μl of 14 C-AMG (0.05 μCi) to each well. After 2 hours' incubation at 37° C., 5% CO2, the cells are washed again with 250 μl of PBS ([…]) and then lysed by the addition of 25 μl of 0.1 N NaOH (5 min. at 37° C.). 200 μl of MicroScint20 (Packard) are added to each well and incubation is continued for a further 20 min at 37° C.

The compound `CN1CCOc2ccc(Cc3cc([C@@H]4O[C@H](CO)[C@@H](O)[C@H](O)[C@H]4O)ccc3Cl)cc21` [USRE49080, Example 11] registered an IC50 of 1.4 nM.

In general, IC50 refers to the concentration that gives 50% inhibition.
